This is an account of results in patent publication US20060045884A1, “Vaccines for autoimmune and infectious disease” (Board of Regents, priority 2004, published 2006).

Entries after “also recorded” stand apart in the source; their conditions may differ. Read-outs that look alike come from different tables or passages of the source. Bounds are passed on as bounds.

One test has as its system peptide-loaded T2 cells. The test can be described thus: Induction of primary CTL responses with peptide-pulsed T2 cells and 4-hr cytotoxicity against peptide-loaded T2 cells. Type of test: cell-based, human. Conditions: for donors in which peptide-stimulated CTL lines killed CCNE1144-152- and CCNE2144-152-pulsed T2 cells: PBMCs from 7 HLA-A2 positive normal donors; for peptide-specific lysis by CTL line generated against the MPO peptide: T2 cells loaded with 2.0 μg/mL of the same peptide; for elicitation of peptide specific CTL lines: different donors and differing peptide concentrations; for peptide-specific lysis by CTL line generated against the peptide: T2 cells loaded with 1.0 μg/mL of the same peptide, E:T 50:1 to 6:1.

Test [1] relates to HLA-A2.1 positive human myeloid leukemia cells. The test can be described thus: 4-hr cytotoxicity of peptide-specific CTL against leukemia cells, normal marrow and cell lines. Type of test: cell-based. Conditions: not non-transfected K562. The protocol: CTL cytotoxicity assay. A semi-automated minicytotoxicity assay was used to determine specific lysis as described previously (Molldrem, 2000; Molldrem et al., 1996). Briefly, effector cells were prepared in doubling dilutions from 6×10^3 to 25×10^3 cells/well and were plated in 40 μl, 60-well Terasaki trays (Robbins Scientific, Sunnyvale, Calif., USA) with six replicates per dilution. Target cells (T2 cells, marrow-derived leukemic cells, or BM from a healthy donor) at a concentration of 2×10^6 cells/ml were stained with 10 μg/ml of Calcein-AM (Molecular Probes Inc.) for 60 min at 37° C. […] Wells with target cells alone and medium alone were used for maximum (max) and minimum (min.) fluorescence emission, respectively. After 4 hr incubation at 37° C. in 5% CO2, 5 μl FluoroQuench (One Lambda Inc., Canoga Park, Calif., USA) was added to each well, and the trays were centrifuged for 1 min at 60 g before measurement of fluorescence using an automated CytoFluor II plate reader (PerSeptive Biosystems, Framingham, Mass., USA). The percentage of lysis was calculated as follows: % lysis={1−[(mean experimental mission−mean min.)/(mean max−mean min.)]}×100%.
PR1 specific CTL preferentially lyse human myeloid leukemia cells. It was next determined whether the PR1-specific CTL line was capable of lysing allogeneic human myeloid leukemia cells from HLA-A2.1 positive individuals. […]

For the next test, the target named is HLA-A2.1 (Homo sapiens, UniProt P04439, D140Y/D185E/D98H/E176V/E277Q/G131W/G231S/I119V/I121R/I166T/I218V/L300P/L318F/N151K/N90K/P208A/P217A/Q86G/Q94H/R138H/R169H/T345S). Nature of the test: Peptide binding: HLA-A2.1 surface expression on peptide-coated T2 cells by indirect flow cytometry. The settings on record: for Median Channel of Fluorescence of HLA-A2 Expression on T2: background HLA-A2 without peptide 22; for peptide binding to HLA-A*0201, fluorescence intensity versus positive control peptide (Influenza B Nuclear Protein): T2 cells pulsed 18 hr; for surface HLA-A2.1 expression compared with T2 cells with no added peptide: result in words. In general terms: In flow cytometry, cells or beads pass a laser one at a time.

Test [2] deals with PR1-CTL from a healthy donor. Nature of the test: Annexin V staining of PR1-CTL 16 to 18 hr after challenge with peptide-pulsed T2 cells. It is filed as cell-based, human. Conditions: for apoptosis of high avidity PR1-CTL: T2 cells pulsed with 20 μM peptide. An excerpt: High PR1 concentration and proteinase 3-overexpressing CML cells induce apoptosis of high avidity PR1-specific CTL. […] All high avidity PR1-CTL exposed to high dose PR1 were dead after 36 to 48 hr of co-culture.

Test [3] has as its system PBMCs from HLA-A2+ CML patients. Type of test: cell-based, human.
Test [4] deals with PBMC from HLA-A2.1+ healthy donor. The test can be described thus: PR1/HLA-A2 tetramer staining of CTL elicited from healthy donor PBMC with PR1-pulsed T2 cells. It is filed as cell-based, human.
The test system of test [5] is HLA-A2+ patients with CML, AML or MDS. Nature of the test: Phase I/II PR1 peptide vaccine study. The settings on record: 9 patients. Type of test: in vivo, human.
Source text: To test this in refractory leukemia patients, a phase I/II vaccine study was initiated. HLA-A2^+ patients with CML (interferon-resistant or relapsed after BMT), AML (smoldering relapse or ≧2nd CR) or MDS (RAEB or RAEBt) with no detectable antibodies to proteinase 3 (no detectable cANCA) were eligible. Patients that relapsed after BMT or those ineligible for BMT were also eligible for study. Pregnant patients, HIV+ patients, and those with known vasculitis were excluded. Patients were required to have immunosuppression (i.e. cyclosporine, steroids) discontinued 4 weeks prior to study entry.
Secondarily, clinical responses were assessed by standard criteria with bone marrow biopsy, cytogenetic studies (standard chromosome banding) and molecular studies (PCR for bcr-abl or other known abnormalities such as t(15;17), inv16, etc.) 3 weeks after the last vaccination. Patients were seen and evaluated in clinic every 3 weeks during the study period. Both vialed PR1 peptide (NSC698102) and the adjuvant (Montanide ISA-51, NSC675756) were used in this study.
The overall study was divided into two parts: Phase I consisted of nine patients treated in cohorts of three at 1 of 3 dose levels of 0.25 mg, 0.5 mg, or 1.0 mg of PR1 peptide given subcutaneously in incomplete Freund's adjuvant (Montanide ISA-51) and GM-CSF 75 mg subcutaneously every 3 weeks for 3 injections. […]

Regarding ILLDWLLEV [CCNE2144-152], the “donors in which peptide-stimulated CTL lines killed CCNE1144-152- and CCNE2144-152-pulsed T2 cells” value in the test on peptide-loaded T2 cells is given as 4 of 7.

As to ILLDWLMEV [CCNE1144-152], the “peptide-stimulated CTL lines that killed HLA-A2 transfected K562 leukemic cell line” value in test [1] was “one of 4”. Moreover, the “donors in which peptide-stimulated CTL lines killed CCNE1144-152- and CCNE2144-152-pulsed T2 cells” value in the test with peptide-loaded T2 cells is listed as 3 of 7.

“Influenza nucleoprotein: control influenza peptide, Influenza B nucleoprotein (aa 85-94), known high binding affinity to HLA-A2.1 (KLGEFYNQMM) [reference compound]”: the “Median Channel of Fluorescence of HLA-A2 Expression on T2” value (“Median Channel of Fluorescence … on T2” below) in the test with HLA-A2.1 is listed as 194. The “apoptosis of high avidity PR1-CTL” value in test [2] is reported as “no apoptosis was observed”.

Take KLLLALAGL [MY2]: in the test with peptide-loaded T2 cells, the “peptide-specific lysis by CTL line generated against the MPO peptide” value is “high specific lysis”.

On to KLNDILLIQL [PR7I], for which the “peptide binding to HLA-A*0201, fluorescence intensity versus positive control peptide (Influenza B Nuclear Protein)” value with HLA-A2.1 was “strong peptide binding”.

Turning to KLNDVLLIQL [PR7V], the “peptide binding to HLA-A*0201, fluorescence intensity versus positive control peptide (Influenza B Nuclear Protein)” value with HLA-A2.1 is “strong peptide binding”.

In the case of LIQPFMFRL [MY5], the “elicitation of peptide specific CTL lines” value (“elicitation” below) with peptide-loaded T2 cells is recorded as “No peptide specific CTL lines could be elicited”.

Regarding LLSYFKQPV [MY3], the “elicitation” value with peptide-loaded T2 cells is on record as “No peptide specific CTL lines could be elicited”.

Turning to “NLVPMVATV [pp65 peptide, reference compound]”, in test [3], the “avidity of CTLs elicited with pp65 peptide-pulsed T2 cells” value is recorded as “high-avidity p65-specific CTLs”.

Regarding RLFEQVMRI [MY4], the “peptide-specific lysis by CTL line generated against the MPO peptide” value with peptide-loaded T2 cells is listed as “tested similarly”.

For the substance RLFPDFFTRV [PR2], in the test with HLA-A2.1, the “Median Channel of Fluorescence … on T2” value was determined as 273 and the “surface HLA-A2.1 expression compared with T2 cells with no added peptide” value is reported as “increased surface HLA-A2.1 expression”. For the same substance, in the test with peptide-loaded T2 cells, the “peptide-specific lysis by CTL line generated against the peptide” value is listed as “did not demonstrate any significant cytotoxicity”.

Regarding SLWRRPFNV [MY1], the “elicitation” value in the test with peptide-loaded T2 cells is given as “No peptide specific CTL lines could be elicited”.

Consider “VLQELNVTV [PR1, HLA-A2.1-restricted nonamer (aa 169-177) derived from proteinase 3]”, for which the “surface HLA-A2 expression on T2 cells versus PR1 concentration” value with HLA-A2.1 (PR1 from 2 μM and 200 μM) is “increases linearly”. In the test with HLA-A2.1, the “Median Channel of Fluorescence … on T2” value was found to be 294 and the “surface HLA-A2.1 expression compared with T2 cells with no added peptide” value is “increased surface HLA-A2.1 expression”. Further, the “apoptosis of high avidity PR1-CTL” value in test [2] is “underwent apoptosis”. The “apoptosis of low avidity PR1-CTL” value in test [2] (high or low concentrations of PR1) was “did not undergo apoptosis”. The “high intensity PR1/HLA-A2 tetramer-staining CTL elicited” value in test [4] (0.2 μM PR1 weekly for 28 days) was found to be 1.3%. The “median channel of flourescence (MCF) of tetramer staining” value in test [4] (20 μM PR1) worked out at 93. Further, the “low avidity PR1-specific CTL elicited” value in test [4] (20 μM PR1 weekly for 28 days) stood at 3.1%. Besides, the “bulk culture CTL double-positive for anti-CD8 and PR1-tetramer” value in test [4] (32 day-old PR1-stimulated CTL culture) amounted to 4.3%. The “fraction of CTL line specific for PR1 (CD8/PR1-tetramer)” value in test [4] (day 17 CTL line elicited against PR1) came out at 2.4%. In test [4] (≦0.02 μM PR1), this substance came in with a PR1-CTL induced of under 0.1%. The “avidity of PR1-CTL that could be elicited from CML patients” value in test [3] (CML #1, #2, #3, weekly PR1 stimulation) is recorded as “Only low-avidity PR1-CTLs could be elicited; also recorded: Only low avidity PR1-CTL could be elicited”. Also, the “lowest PR1 concentration eliciting PR1-CTLs” value in test [3] (patient 1) is at least 0.2 µM. The “lowest PR1 concentration eliciting low-avidity PR1-CTLs” value in test [3] (patient 2) was determined as 0.02 µM. Also, the “lowest PR1 concentration eliciting low-avidity PR1-CTLs” value in test [3] (patient 3) came out at 0.002 µM. In test [5], the “PR1-specific CTL immunity elicited (by tetramer staining)” value is on record as 6 of 9 and the complete remissions was 2 patients. Also, the “peptide-specific lysis by CTL line generated against the peptide” value in the test with peptide-loaded T2 cells was “high specific lysis”.
